Read-outs that look alike come from different tables or passages of the source. Marks after values point to notes of the source that are not given here.
Assays:
IL-15 = experiment: Measurement of interleukin-15 production (ELISA of supernatant); type: cell-based; conditions: riluzole 10^-8 M, culture supernatant, without riluzole 1
NB4 line = experiment: Inhibition of tumor cell proliferation; type: cell-based; conditions: NB4 line (FIG. 9c)
Description: (§1) After 5 days, the proliferation of the cells is estimated by tritiated (3H) thymidine incorporation. Other tumor lines were used, namely the H9 line (T lymphoma), the NB4 line (line derived from an acute promyelocytic leukemia) and the Jurkat line (T-lymphoma-derived lymphoblastic T cell line).

Jurkat line = experiment: Inhibition of tumor cell proliferation; type: cell-based; conditions: Jurkat line (FIG. 9b)
Description: as §1

H9 line = experiment: Inhibition of tumor cell proliferation; type: cell-based; conditions: H9 line (FIG. 9d)
Description: as §1

HIV-1 = conditions: for viral RNA expressed, more than the control: patient two, no therapy; for Viral RNA Number of copies/ml: after 6 days (day 12-18)
FAS (CD95/APO-1) = experiment: Apoptosis induced by the anti-FAS antibody (annexin V expression); type: cell-based, human; conditions: lymphocytes of patient two
Procedure: The apoptotic cells were measured using propidium iodide and FITC-labeled annexin V, which is a phospholipid-binding protein that binds preferentially to the phosphatidylserine exposed at the surface of the cells in the initial phase of apoptosis, by means of a commercially available kit (Immunotech, Marseille, France). The cells that were propidium-iodide-negative and annexin-V-positive were identified as being apoptotic cells, whereas those that were positive for both propidium iodide and annexin V were considered to be pre-necrotic cells. The apoptosis caused by the anti-FAS monoclonal antibody (CD95/APO-1) (Immunotech, Marseille, France) was thus measured since it is well known that Fas/Fas ligand apoptosis is amplified in AIDS disease.
Counting of T cells having CD4+ and CD8+ phenotypes, of the Ki-67 activation marker and of annexin V was carried out by flow cytometry analysis (FACScan, Becton Dickenson, San José, Calif., USA). A series of monoclonal antibodies directed against the following surface markers of T cells was used: CD4-PerCP, CD8-PE (Becton Dickinson, France), Ki-67-FITC (Pharmingen, Los Angeles, Calif., USA), Annexin-FITC (Immunotech, Marseille, France).
As indicated above, it is well established that the lymphocytes of HIV-1-infected patients are sensitive to apoptosis induced by the expression of FAS (CD95/APO-1) and of its agonist, the anti-FAS antibody.

Ki-67 antigen = experiment: Expression of the Ki-67 antigen (flow cytometry); type: cell-based, human
IL-15 gene = experiment: Detection of cytokines by real-time PCR; type: cell-based; conditions: real-time PCR (FIG. 8)
Procedure: (§2) Using real-time PCR, 2 μg of total RNA is first reverse-transcribed by means of a kit (High Capacity cDNA Archive kit PN: 4322171, Applied Biosystems, Foster City, Calif.) using random primers and the MultiScribe RT enzyme (5 U/μl) for 2 hours at 37° C. The method of labeling with a SYBR Green, a fluorescent molecule which intercalates into the minor groove of the double helix, was used. The reaction is carried out using a thermocycler (ABI prism 7900 HT, Applied Biosystems, Foster City, Calif.). Each point studied was composed of 5 μl of SYBR Green PCR Master Mix (PN:4344463; Applied Biosystems, Foster City, Calif.), 0.3 μl of sense and antisense primer at a concentration of 10 μM (Proligo), 3.4 μl of Rnase-free water and 1 μl of cDNA. After a denaturation step at 95° C. for 15 min, the amplification is carried out after 40 cycles at 95° C. for 15 s, 60° C. for 30 s and 72° C. for 30 s. At the end of the PCR, a dissociation step corresponding to the amplification peak, which takes place in a cycle of 95° C. for 15 s, 60° C. for 15 s and 95° C. for 15 s, verifies the validity of the primers. The primers for all the genes studied were chosen according to the Oligo Explorer 1.1 amplification conditions. The samples were studied in duplicate in the presence of a negative control, composed of Master Mix and the primers, but without the cDNA. Glyceraldehyde phosphate dehydrogenase (GAPDH) was used as endogenous control gene.
(§3) The effect of the treatments on the levels of mRNA of interest is studied using the method of comparison of CTs (Peinnequin et al., 2004) or number of cycles necessary to reach a threshold fluorescence value (software SDS 2.1, AB prism).
(§4) The sequences of the primers used are the following (Proligo LLC, Boulder, Colo., USA) (forward-reverse): […]

interferon-β gene = experiment: Detection of cytokines by real-time PCR; type: cell-based; conditions: real-time PCR (FIG. 8)
Procedure: as §2, §3, §4

interferon-α gene = experiment: Detection of cytokines by real-time PCR; type: cell-based; conditions: real-time PCR (FIG. 8)
Procedure: as §2, §3, §4

Toll receptor 3 gene = experiment: Detection of cytokines by real-time PCR; type: cell-based; conditions: real-time PCR (FIG. 8)
Procedure: as §2, §3, §4

HIV-1 proviral DNA = experiment: Proviral DNA, modified Muprovama test; conditions: for Log of proviral HIV DNA: riluzole 0.1 μM (+), mean ± S.D.; for Proviral DNA Number of copies/10^6 cells: after 6 days (day 12-18)
[1] = system: TG 180 line (Crocker sarcoma tumor); experiment: Inhibition of tumor cell proliferation (3H thymidine incorporation); type: cell-based; conditions: 120 h, 5 days (FIG. 9a)
Description: as §1

[2] = system: lymphocytes of a patient suffering from AIDS; experiment: Apoptosis test (annexin V / propidium iodide, flow cytometry); type: cell-based, human; conditions: after 13 days; 10^-7-10^-8 M
Procedure: The apoptotic cells were measured using propidium iodide and FITC-labeled annexin V, which is a phospholipid-binding protein that binds preferentially to the phosphatidylserine exposed at the surface of the cells in the initial phase of apoptosis, by means of a commercially available kit (Immunotech, Marseille, France). The cells that were propidium-iodide-negative and annexin-V-positive were identified as being apoptotic cells, whereas those that were positive for both propidium iodide and annexin V were considered to be pre-necrotic cells. […] Counting of T cells having CD4+ and CD8+ phenotypes, of the Ki-67 activation marker and of annexin V was carried out by flow cytometry analysis (FACScan, Becton Dickenson, San José, Calif., USA). A series of monoclonal antibodies directed against the following surface markers of T cells was used: CD4-PerCP, CD8-PE (Becton Dickinson, France), Ki-67-FITC (Pharmingen, Los Angeles, Calif., USA), Annexin-FITC (Immunotech, Marseille, France).

[3] = system: lymphocytes of patients suffering from AIDS; type: cell-based, human; conditions: after 6 days (day 12-18)
[4] = system: lymphocytes of patients suffering from AIDS; type: cell-based, human; conditions: for Cell survival rate (×100%): day 18 vs day 12

Nc1nc2ccc(OC(F)(F)F)cc2s1 [riluzole, 6-(trifluoromethoxy)-2-aminobenzothiazole]
production of IL-15 (IL-15): 6 pg/mL
production of IL-15 (IL-15; listed as Riluzole): 15* pg/ml
inhibition of the proliferation of tumor cells (NB4 line): inhibition of the proliferation of these tumor cells is also observed
inhibition of the proliferation of tumor cells (Jurkat line): inhibition of the proliferation of these tumor cells is also observed
inhibition of the proliferation of tumor cells (H9 line): inhibition of the proliferation of these tumor cells is also observed
virus measurement versus control (HIV-1; patient one, 10^-7 M, days 3 and 6 of culture): virtually the same
HIV-1 RNA of conditioned cultures versus controls (HIV-1; patient one, 10^-7 M, days 10 and 13 (FIG. 1C)): twice as high
viral RNA expressed, more than the control (HIV-1; day 13 (FIG. 3C)): up to 0.7 log10
viral RNA expressed, more than the control (HIV-1; from the 6th day, doses 10^-8 M, 10^-7 M and 10^-8 M as printed): 0.8 logn
HIV-1 RNA in culture supernatants, increase (HIV-1; untreated patient one, 10^-7 M, day 13 of culture): 100%
inhibition at 0.01 µM (FAS (CD95/APO-1); Homo sapiens, Lymphocyte, 10^-8 M): 62%
apoptosis (annexin V expression) of cells coupled to anti-FAS antibody (FAS (CD95/APO-1); 10^-8 M, control 50%): 15%
percentage inhibition of apoptosis, cells cultured without anti-FAS antibody (FAS (CD95/APO-1); compared with the 62% inhibition with antibody): comparable
inhibition of Ki-67 antigen expression by all of the lymphocytes (Ki-67 antigen; after 13 days in the presence of riluzole (FIG. 6A)): ~33%
inhibition of Ki-67 antigen expression by the CD8 lymphocytes (Ki-67 antigen; after 13 days in the presence of riluzole (FIG. 6B)): ~37%
inhibition of Ki-67 antigen expression by the CD4 lymphocytes (Ki-67 antigen; after 13 days in the presence of riluzole (FIG. 6C)): ~50%
expression of the IL-15 gene (IL-15 gene): capable of inducing the expression
expression of the interferon-β gene (interferon-β gene): capable of inducing the expression
expression of the interferon-α gene (interferon-α gene): capable of inducing the expression
expression of the Toll receptor 3 gene (Toll receptor 3 gene): capable of inducing the expression
Log of proviral HIV DNA (HIV-1 proviral DNA; TT(+), V: 44.000, Day 3 of culture): 2 ± 0.3 Log copies [cp]/10^6 cells
Log of proviral HIV DNA (HIV-1 proviral DNA; TT(+), V: 44.000, Day 6 of culture): 0.3 ± 0.1 Log copies [cp]/10^6 cells
Log of proviral HIV DNA (HIV-1 proviral DNA; TT(+), V: 250, Day 3 of culture): 3 ± 0.2 Log copies [cp]/10^6 cells
Log of proviral HIV DNA (HIV-1 proviral DNA; TT(+), V: 250, Day 6 of culture): 0.2 ± 0.1 Log copies [cp]/10^6 cells
Log of proviral HIV DNA (HIV-1 proviral DNA; TT(−), V: 68.000, Day 3 of culture): 3.7 ± 0.2 Log copies [cp]/10^6 cells
Log of proviral HIV DNA (HIV-1 proviral DNA; TT(−), V: 68.000, Day 6 of culture): 0.7 ± 0.1 Log copies [cp]/10^6 cells
inhibition at 100 µM ([1]; 10^-4 M): 86%
inhibition at 10 µM ([1]; 10^-5 M (first mention)): 40%
inhibition at 10 µM ([1]; 10^-5 M (second mention)): 30%
inhibition of apoptosis of CD4 lymphocytes [2]: 80%
inhibition of apoptosis of CD8 lymphocytes [2]: 70%
inhibition of total apoptosis expressed by all the lymphocytes [2]: 66%

Cc1cn([C@H]2C[C@H](N=[N+]=[N-])[C@@H](CO)O2)c(=O)[nH]c1=O [AZT]
Viability % dead cells ([3]; Individual AR, AZT 1 μg/ml): 28%
Viability % dead cells ([3]; Individual AR, AZT 10 μg/ml): 25%
Viability % dead cells ([3]; Individual PR, AZT 1 μg/ml): 19%
Viability % dead cells ([3]; Individual PR, AZT 10 μg/ml): 20%
Viability % dead cells ([3]; Individual beta, AZT 1 μg/ml): 29%
Viability % dead cells ([3]; Individual beta, AZT 10 μg/ml): 20%
effect on proliferation of the control cells ([4]; AZT 10 μg/ml): suppressor (antiproliferative) effect
Cell survival rate (×100%) ([4]; Individual AR, AZT 1 μg/ml): 5 ×100%
Cell survival rate (×100%) ([4]; Individual AR, AZT 10 μg/ml): 4 ×100%
Cell survival rate (×100%) ([4]; Individual PE, AZT 10 μg/ml): 3 ×100%
Cell survival rate (×100%) ([4]; Individual PR, AZT 1 μg/ml): 12 ×100%
Cell survival rate (×100%) ([4]; Individual PR, AZT 10 μg/ml): 13 ×100%
Cell survival rate (×100%) ([4]; Individual beta, AZT 1 μg/ml): 3 ×100%
antiviral effect on the control cells (HIV-1; AZT 1 μg/ml): partial, or even equivalent
antiviral effect (HIV-1; AZT 10 μg/ml): exerts an antiviral effect
Viral RNA Number of copies/ml (HIV-1; Individual AR, AZT 1 μg/ml): 35 000 copies/ml
Viral RNA Number of copies/ml (HIV-1; Individual AR, AZT 10 μg/ml): <100 copies/ml
Viral RNA Number of copies/ml (HIV-1; Individual PR, AZT 1 μg/ml): 7000 copies/ml
Viral RNA Number of copies/ml (HIV-1; Individual PR, AZT 10 μg/ml): <100 copies/ml
Proviral DNA Number of copies/10^6 cells (HIV-1 proviral DNA; Individual AR, AZT 1 μg/ml): 6.1 Log copies/10^6 cells
Proviral DNA Number of copies/10^6 cells (HIV-1 proviral DNA; Individual AR, AZT 10 μg/ml): 5.4 Log copies/10^6 cells
Proviral DNA Number of copies/10^6 cells (HIV-1 proviral DNA; Individual PR, AZT 1 μg/ml): 4.9 Log copies/10^6 cells
Proviral DNA Number of copies/10^6 cells (HIV-1 proviral DNA; Individual PR, AZT 10 μg/ml): 4.8 Log copies/10^6 cells
